Converted amounts (≈) assume the structure as drawn.
How the values were obtained:
[1] = tested on: Colletotrichum gloeosporioides; experiment: Antifungal activity against Colletotrichum gloeosporioides; format: functional
Cytospora mali = experiment: Antifungal activity against Valsa mali; format: functional
Alternaria alternata = experiment: Antifungal activity against Alternaria alternata; format: functional
Alternaria brassicae = experiment: Antifungal activity against Alternaria brassicae; format: functional
Sclerotinia sclerotiorum = experiment: Antifungal activity against Sclerotinia sclerotiorum; format: functional, organism-based
[2] = tested on: Trichophyton interdigitale; experiment: Antifungal activity against Trichophyton interdigitale; format: functional
Alternaria solani = experiment: Antifungal activity against Alternaria solani relative to control; format: functional; set-up: concentration or dose not given beside the values
Bipolaris maydis = experiment: Antifungal activity against Bipolaris maydis relative to control; format: functional; set-up: concentration or dose not given beside the values
Fusarium solani [3] = experiment: Antifungal activity against Fusarium solani; format: functional, organism-based
Aspergillus niger = experiment: Antifungal activity against Aspergillus niger assessed as inhibition of growth rate at 100 ug/ml by disc diffusion method relative to control; format: functional
Bipolaris oryzae = experiment: Antifungal activity against Helminthosporium oryzae assessed as inhibition of growth rate at 100 ug/ml by disc diffusion method relative to control; format: functional
Sclerotinia [4] = experiment: Antifungal activity against rape Sclerotinia rot at 50 ug/ml relative to control; format: functional; details: Sclerotinia
Gaeumannomyces graminis = experiment: Antifungal activity against Gaeumannomyces graminis; format: functional, organism-based
Sclerotinia [5] = experiment: Antifungal activity against sunflower Sclerotinia rot at 50 ug/ml relative to control; format: functional; details: dose 50 µg/ml
Curvularia lunata = experiment: Antifungal activity against Curvularia lunata; format: functional, organism-based
Fusarium solani [6] = experiment: Antifungal activity against Fusarium solani incubated for 72 hrs; format: functional, organism-based; details: for EC50: Fusarium solani, 72 h
Candida albicans [7] = experiment: Antifungal activity against Candida albicans incubated for 72 hrs; format: functional
Saccharomyces cerevisiae = experiment: Antifungal activity against Saccharomyces cerevisiae; format: functional
Phytophthora litchii = experiment: Antifungal activity against Phytophthora litchii assessed as inhibition of growth rate at 100 mg/L relative to control; format: functional
Candida albicans [8] = experiment: Antifungal activity against Candida albicans incubated for 24 hrs by well diffusion method; format: functional
Metarhizium anisopliae = experiment: Antifungal activity against Metarhizium anisopliae assessed as reduction of growth rate relative to control; format: functional; set-up: scale not given: the % may be the effect or the level left
Rhizoctonia solani = experiment: Antifungal activity against Rhizoctonia solani; format: functional, organism-based

SMILES: O=C1[C@@H]2Cc3c([nH]c4ccccc34)C(c3ccccc3)N2C(=O)[C@@H]2CCCN12 (stereo partly drawn)
- MIC [1]: 12.5 µg/mL (≈ 33.7 µM)
- MIC (Cytospora mali): 12.5 µg/mL (≈ 33.7 µM)
- MIC (Alternaria alternata): 12.5 µg/mL (≈ 33.7 µM)
- MIC (Alternaria brassicae): 12.5 µg/mL (≈ 33.7 µM)

SMILES: CC(C)C1c2[nH]c3ccccc3c2C[C@H]2C(=O)N3CCC[C@H]3C(=O)N12 (stereo partly drawn)
- MIC [1]: 12.5 µg/mL (≈ 37 µM)
- MIC (Cytospora mali): 12.5 µg/mL (≈ 37 µM)
- MIC (Alternaria alternata): 12.5 µg/mL (≈ 37 µM)
- MIC (Alternaria brassicae): 12.5 µg/mL (≈ 37 µM)

SMILES: O=C(O)c1cc2c([nH]c3ccccc32)c(-c2ccc(Br)cc2)n1
- EC50 (Sclerotinia sclerotiorum): 5.38 µM

SMILES: O=C1[C@@H]2Cc3c([nH]c4ccccc34)C(c3ccc([N+](=O)[O-])cc3)N2C(=O)[C@@H]2CCCN12 (stereo partly drawn)
- MIC [1]: 6.25 µg/mL (≈ 15 µM)
- MIC (Cytospora mali): 12.5 µg/mL (≈ 30 µM)
- MIC (Alternaria alternata): 12.5 µg/mL (≈ 30 µM)
- MIC (Alternaria brassicae): 12.5 µg/mL (≈ 30 µM)

SMILES: COc1cc(C2c3[nH]c4ccccc4c3C[C@H]3C(=O)N4CCC[C@H]4C(=O)N23)ccc1O (stereo partly drawn)
- MIC [1]: 12.5 µg/mL (≈ 29.9 µM)
- MIC (Cytospora mali): 6.25 µg/mL (≈ 15 µM)
- MIC (Alternaria alternata): 12.5 µg/mL (≈ 29.9 µM)
- MIC (Alternaria brassicae): 6.25 µg/mL (≈ 15 µM)

SMILES: CCCCCCCCCCc1nccc2c1[nH]c1ccccc12
- MIC [2]: 1.6 µg/mL (≈ 5.19 µM)

SMILES: CC(C)[C@@H]1COC(c2nccc3c2[nH]c2ccccc23)=N1
- EC50 (Sclerotinia sclerotiorum): 15.5 µM

SMILES: Cc1nccc2c1[nH]c1cc(OC(=O)C(C)(C)C)ccc12
- Activity (Alternaria solani): 66.7%
- Activity (Bipolaris maydis): 78.9%

SMILES: Cc1ccccc1[N+]1=Cc2c(c3ccccc3n2C)CC1
- EC50 (Fusarium solani [3]): 2.35 µM

SMILES: CC[C@@H](C)[C@@H]1COC(c2nccc3c2[nH]c2ccccc23)=N1
- EC50 (Sclerotinia sclerotiorum): 17.7 µM

SMILES: CCCCCCCCCc1nccc2c1[nH]c1ccccc12
- MIC [2]: 3.2 µg/mL (≈ 10.9 µM)

SMILES: CN(C)c1ccc(C2NCCc3c2[nH]c2ccccc32)cc1 (stereo not drawn)
- inhibition at 100 µg/mL (Aspergillus niger): 20.8%
- inhibition at 100 µg/mL (Bipolaris oryzae): 21.6%

SMILES: Cc1ccc2c(c1)c1c(n2C)C=[N+](c2ccccc2C)CC1
- EC50 (Fusarium solani [3]): 3.47 µM

SMILES: CCn1c2ccccc2c2ccnc(-c3nc4ccccc4[nH]3)c21
- inhibition at 50 µg/mL (Sclerotinia [4]): 92%

SMILES: CC(C)(C)[C@@H]1COC(c2nccc3c2[nH]c2ccccc23)=N1
- EC50 (Sclerotinia sclerotiorum): 13 µM

SMILES: CC(C)CCc1nccc2c1[nH]c1ccccc12
- MIC [2]: 50 µg/mL (≈ 210 µM)

SMILES: COc1ccc(C2c3[nH]c4ccccc4c3C[C@H]3C(=O)N4CCC[C@H]4C(=O)N23)cc1 (stereo partly drawn)
- MIC [1]: 6.25 µg/mL (≈ 15.6 µM)
- MIC (Cytospora mali): 12.5 µg/mL (≈ 31.1 µM)
- MIC (Alternaria alternata): 12.5 µg/mL (≈ 31.1 µM)
- MIC (Alternaria brassicae): 12.5 µg/mL (≈ 31.1 µM)

SMILES: NC(=O)c1cc2c([nH]c3ccccc32)c(-c2ccccn2)n1
- EC50 (Gaeumannomyces graminis): 2.85 µM

SMILES: Cc1nccc2c3ccccc3n(Cc3cn(-c4ccccc4)nn3)c12
- Activity (Sclerotinia [5]): 85.04%

SMILES: COC(=O)c1cc2c([nH]c3ccccc32)c(C(=O)OC)n1
- EC50 (Gaeumannomyces graminis): 1.16 µM

SMILES: Cc1ccc([N+]2=Cc3c(c4ccccc4n3C)CC2)cc1
- EC50 (Fusarium solani [3]): 2.47 µM

SMILES: CC[C@@H]1COC(c2nccc3c2[nH]c2ccccc23)=N1
- EC50 (Sclerotinia sclerotiorum): 22.4 µM

SMILES: Cc1nccc2c3ccccc3n(Cc3cn(-c4cc(F)c(F)c(F)c4)nn3)c12
- Activity (Sclerotinia [5]): 85.98%

SMILES: CCCCCn1c2ccccc2c2cc(C)ncc21
- EC50 (Curvularia lunata): 13.8 µg/mL (≈ 54.7 µM)

SMILES: CCCCCCCCc1nccc2c1[nH]c1ccccc12
- MIC [2]: 3.2 µg/mL (≈ 11.4 µM)

SMILES: CO/C=C(/C(=O)OC)c1ccccc1Oc1cc(Oc2ccccc2C#N)ncn1 [AZOXYSTROBIN]
- inhibition at 50 µg/mL (Sclerotinia [4]): 88.5%
- Activity (Sclerotinia [5]): 88.07%

SMILES: O=C(Nc1ccccc1-c1ccc(Cl)cc1)c1cccnc1Cl [BOSCALID]
- EC50 (Sclerotinia sclerotiorum): 0.9 µM

SMILES: COC(=O)Nc1nc2ccccc2[nH]1 [CARBENDAZIM]
- Activity (Sclerotinia [5]): 89.77%
- EC50 (Fusarium solani [6]): 4.34 µM

SMILES: N#Cc1c(Cl)c(Cl)c(Cl)c(C#N)c1Cl [CHLOROTHALONIL]
- Activity (Alternaria solani): 73.3%
- Activity (Bipolaris maydis): 91.3%

SMILES: COC1=CC(=O)C[C@@H](C)[C@]12Oc1c(Cl)c(OC)cc(OC)c1C2=O [GRISEOFULVIN]
- inhibition at 100 µg/mL (Aspergillus niger): 20.3%
- inhibition at 100 µg/mL (Bipolaris oryzae): 20.4%

SMILES: COc1ccc2c3c([nH]c2c1)C(C)=NCC3 [HARMALINE]
- MIC (Candida albicans [7]): 666 µg/mL (≈ 3110 µM)

SMILES: CC1=NCCc2c1[nH]c1cc(O)ccc21 [HARMALOL]
- MIC (Candida albicans [7]): 750 µg/mL (≈ 3750 µM)

SMILES: Cc1nc(C(=O)O)cc2c1[nH]c1ccccc12 [HARMAN-3-CARBOXYLIC ACID]
- Activity (Alternaria solani): 33.3%
- Activity (Bipolaris maydis): 21.1%

SMILES: Cc1nccc2c1[nH]c1ccccc12 [HARMAN]
- MIC [2]: 200 µg/mL (≈ 1100 µM)
- Activity (Alternaria solani): 68.4%
- Activity (Bipolaris maydis): 36.4%

SMILES: COc1ccc2c(c1)[nH]c1c(C)nccc12 [HARMINE]
- MIC (Candida albicans [7]): 500 µg/mL (≈ 2360 µM)
- Activity (Alternaria solani): 15.7%
- Activity (Bipolaris maydis): 22.7%

SMILES: CC(=O)N1CCN(c2ccc(OCC3COC(Cn4ccnc4)(c4ccc(Cl)cc4Cl)O3)cc2)CC1 (stereo not drawn) [KETOCONAZOLE]
- MIC (Saccharomyces cerevisiae): 2.5 µg/mL (≈ 4.7 µM)
- MIC [1]: 12.5 µg/mL (≈ 23.5 µM)
- MIC (Cytospora mali): 12.5 µg/mL (≈ 23.5 µM)
- MIC (Alternaria alternata): 12.5 µg/mL (≈ 23.5 µM)
- MIC (Alternaria brassicae): 12.5 µg/mL (≈ 23.5 µM)

SMILES: COCC(=O)N(c1c(C)cccc1C)C(C)C(=O)OC (stereo not drawn) [METALAXYL]
- inhibition at 100 µg/mL (Phytophthora litchii): 93.4%

SMILES: Clc1ccc(COC(Cn2ccnc2)c2ccc(Cl)cc2Cl)c(Cl)c1 (stereo not drawn) [MICONAZOLE]
- MIC (Candida albicans [8]): 7.8 µg/mL (≈ 18.7 µM)

SMILES: c1ccc2c(c1)[nH]c1cnccc12 [NORHARMANE]
- MIC [2]: 100 µg/mL (≈ 595 µM)
- Activity (Metarhizium anisopliae): 11.9%

SMILES: c1ccc2[nH]c(-c3cscn3)nc2c1 [THIABENDAZOLE]
- EC50 (Fusarium solani [6]): 12.5 µM
- inhibition (INH) (Fusarium solani [6]; time 72 hrs): 89.3%

SMILES: OCC1=C[C@H](N[C@H]2C[C@H](CO)[C@@H](O[C@@H]3O[C@H](CO)[C@@H](O)[C@H](O)[C@H]3O)[C@H](O)[C@H]2O)[C@H](O)[C@@H](O)[C@@H]1O [VALIDAMYCIN]
- EC50 (Rhizoctonia solani): 198 µg/mL (≈ 397 µM)
